Assay results published in PMC10401713, “Silver(I)-Catalyzed Synthesis of Cuneanes from Cubanes and their Investigation as Isosteres” (Journal of the American Chemical Society, 2023).
Values after ≈ are worked out from the molar mass of the structure shown. Where two headings read alike, the source gives them in different places. One block for each molecule: values may come before it.

Columns and labels:
[1] = logP measurement (Sirius T3, potentiometric shake-flask method, n-octanol/water); type: physicochemical; details: n-octanol and water
Description: (§1) 6. Physicochemical Measurements
(§2) The logP, pKa in H2O, and aqueous solubility were performed on a Sirius T3 instrument (Pion). The device consists of a pH-meter electrode, a robot that prepares the solutions needed to perform the measurements, and a UV-vis spectrophotometer. Basic titration is performed with a 0.5 M KOH buffer. Acidic titration is performed with a 0.5 M HCl buffer.
(§3) Log P was determined potentiometrically by using the "Shake flask" method, which consists of dissolving part of the solute in question in a volume of n-octanol and water, then performing pH […]
(§4) To obtain the pKa values, a pH-metric titration experiment was carried out. It can measure pKa values between 2 and 12. An acidic or base titrant was added to reach a starting pH at which the sample is ionized. Then, small volumes of 0.5 M HCl or KOH titrant were added and the pH was measured after each addition. Potentiometric measurement of basic compounds were done from pH 2 to pH 12 by adding 0.5 M KOH solution. Potentiometric measurement of acid ic compounds (20, S1, and 14) were done from pH 12 to pH 2 by adding 0.5 M HCl solution. Measurement points were done every 0.2 pH value. After each addition, the sample was stirred for 60 seconds and the pH value was then collected. The titration experiments were done 3 times and the stated values are averages of the 3 […]
(§5) (1 picture or pasted object on this page, not shown here)

[2] = Human liver microsome stability; type: in vitro ADME; details: liver microsomes, pH 7.4, 1 µM compound, 0.5 mg/mL protein, NADPH, 37 °C
Description: (§6) 7. Microsome Stability Measurements for the Cuneane Analog of Sonidegib Microsome stability measurements were performed by Sygnature Discovery (Nottingham, United […]
(§7) The microsomal stability of a test compound is assessed by spiking compound into tissue microsomes containing NADPH in buffer and sampling for up t o 1 h at 37 °C. Following protein precipitation and centrifugation, the samples are analy zed by UPLC-MS-MS.
(§8) To assess the metabolic stability of a test compound in tissue microsomes.
(§9) • Compound identifier and molecular formula
(§10) • 20 µL of 1 mM test compound in DMSO or 1 mg solid
(§11) Dilutions of a 1 mM test compound DMSO stock solution are prepared in 0.01 M phosphate buffered saline (pH7.4)) so that the final DMSO concentration is 0.1% and the final test compound concentration tested is 1 µM. Following addition of protein (0.5 mg/mL final) and NADPH, the samples are pre-incubated for 10 min prior to the start of the incubation by the addition of […]. The test compound will be incubated (n = 2; 1 µM final concentration) at 37 °C with tissue microsomes. […]
(§12) All the samples will be mixed, centrifuged and the supernatants analysed by UPLC-MS-MS.
(§13) The intrinsic clearance (Clint) and half-life (t1/2) values will be determined from the slope of the parent depletion curve. […]

[3] = Aqueous solubility (CheqSol method, Sirius T3); type: physicochemical; details: for solubility: water, aqueous buffer, thermodynamic from solid
Description: as §1
as §2, with “HCl buffer. […]” for “HCl buffer.”
as §5
Solubility measurements were performed using the CheqSol method developed by Pion.22 Because in most cases, compounds are more soluble at pH values where they ionized, the analyte was solubilized in acidic water before pH-titration was performed, measuring the UV-vis spectrum after each addition. The precipitation point was detected from the reduction of the light transmission during UV-vis measurement, or manually when not obvious. The pH-titration was repeated several times around the precipitation point to determine the solubility value by averaging. […]
aqueous solubility (mM) –a […]

[4] = Mouse liver microsome stability; type: in vitro ADME; details: CD1, mouse, liver microsomes, pH 7.4, 1 µM compound, 0.5 mg/mL protein, NADPH, 37 °C
Description: as §6, §7, §8, §9, §10, §11, §12, §13

[5] = pKa in H2O by pH-metric titration (Sirius T3); type: physicochemical; details: water, average of 3 measurements
Description: as §1, §2, §3, §4, §5

[6] = set-up: method as in PMID 36763965; details: literature value; ref [8b]; cited from earlier work
[7] = set-up: method as in PMID 36763965; details: literature value; ref [8b]; cited from earlier work; remark: listed apart in the source
[8] = set-up: method as in PMID 36763965; details: literature value; ref [8b]; cited from earlier work; remark: listed apart in the source
[9] = set-up: method as in doi:10.1021/ja983441f; details: literature value; ref ([32]); cited from earlier work

logP [1]: 4.74 ± 0.23
microsomal CLint at 1 µM [2]: 76 µL/min/mg
half-life at 1 µM ([2]; read-out: human liver microsome stability t1/2): 19 min
aqueous solubility [3]: too low to be measured
microsomal CLint at 1 µM [4]: 61 µL/min/mg
half-life at 1 µM ([4]; read-out: mouse liver microsome stability t1/2): 23 min
SMILES: C[C@@H]1CN(c2ccc(NC(=O)C34C5C6C3C3C4C3(c3ccc(OC(F)(F)F)cc3)C65)cn2)C[C@H](C)O1 (stereo partly drawn) [compound 19]

logP [1]: 0.02 ± 0.01
solubility [3]: 149 mM (≈ 30.7 mg/mL)
pKa [5]: 3.96 ± 0.01
SMILES: COC(=O)C12C3C4C1C1C2C3C41C(=O)O (stereo not drawn) [S1]

logP [1]: 0.72 ± 0.01
solubility [3]: 210 mM (≈ 43.3 mg/mL)
pKa [5]: 3.99 ± 0.02
SMILES: COC(=O)C12C3C4C5C1C2C3C45C(=O)O (stereo not drawn) [compound 14]

SMILES: Cc1c(C(=O)Nc2ccc(N3C[C@@H](C)O[C@@H](C)C3)nc2)cccc1-c1ccc(OC(F)(F)F)cc1 [sonidegib]
aqueous solubility [6]: <1.6 × 10^–3 (ref [8b]) mM
human liver microsome stability Clint [7]: 20 µL/min/mg
human liver microsome stability t1/2 [7]: 70 min
mouse liver microsome stability Clint [8]: 26 µL/min/mg
mouse liver microsome stability t1/2 [8]: 53 min
logP [9]: 4.26 (ref ([32]))

logP [1]: 2.02 ± 0.02
solubility [3]: 1.38 mM (≈ 0.249 mg/mL)
pKa [5]: 3.84 ± 0.01
SMILES: COC(=O)c1ccc(C(=O)O)cc1 [compound 20, 4-(methoxycarbonyl)benzoic acid]
